{"source": "patent US8710068B2", "about": "“Method of treating cancer using a survivin inhibitor” (The Trustees Of The University Of Pennsylvania, priority 2009, dated 2014)", "key": {"Survivin protein": {"molecular_target": "T1, Survivin protein (Homo sapiens, UniProt O15392)", "T1 construct": "made in house; host or cells: bacteria", "experiment": "Isothermal titration calorimetry (ITC) binding to native Survivin", "experimental": "(§1) FIG. 5 illustrates an analysis of S12-Survivin binding with isothermal titration calorimetry (ITC). Single-site point mutagenesis was performed to create the Survivin mutants F86A and V89Y. The native and the mutant proteins were produced and purified from bacteria.\nFIG. 16 illustrates the isothermal titration calorimetry profile of the binding of SBDO3 to the Survivin homodimer.\n(§2) In order to examine the specificity of the binding, we generated point mutations on the Survivin protein at the site presumably targeted by S12. The two mutations were substitutions of phenylalanine 86 with alanine (F86A) and valine 89 with tyrosine (V89Y). These two altered sites are also adjacent to the interface involved in dimerization of the Survivin protein. Based on structural analyses, we predict that alterations of either of these two amino acid residues may abolish the binding of S12 without affecting the overall structure of the Survivin protein.\nWe tested the binding of the Survivin target molecules to Survivin by isothermal titration calorimetry."}, "Sur-F86A": {"molecular_target": "T2, Sur-F86A (Homo sapiens, UniProt O15392, F86A)", "T2 construct": "made in house; host or cells: bacteria", "T2 sequence (O15392 whole entry F86A)": "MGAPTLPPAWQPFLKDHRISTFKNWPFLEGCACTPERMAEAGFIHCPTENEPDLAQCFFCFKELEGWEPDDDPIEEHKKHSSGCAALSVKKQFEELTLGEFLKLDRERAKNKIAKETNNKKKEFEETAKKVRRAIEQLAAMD", "experiment": "ITC binding to Survivin mutant F86A", "conditions": "in words", "experimental": "as §1, §2"}, "HCT116(p53−/−) cells": {"test_system": "HCT116(p53−/−) cells", "experiment": "MTT viability assay, HCT116(p53−/−)", "format": "cell-based", "conditions": "48 hours", "experimental": "FIG. 4 illustrates the effects of S12 on proliferation of p53-positive and p53-negative cancer cells. (A) HCT116(p53+/+) or HCT116(p53−/−) cells were treated with DMSO or S12 at the indicated concentrations for 48 hours. The percentage of viable cells was evaluated by MTT assay.\nThus, inhibition of cell proliferation by S12 is independent of p53 status."}, "HeLa cells [1]": {"test_system": "HeLa cells", "experiment": "Cell cycle analysis of DNA content by PI staining and FACS, HeLa", "format": "cell-based, human", "conditions": "HeLa, FACS DNA content", "experimental": "FIG. 7 illustrates the effect of S2 or S12 on cell cycle progression. HeLa cells were treated with S2, S12, S10, S1 (control compound), or DMSO (control), propidium iodide (PI) staining and FACS analysis were performed to quantify the DNA content of cells.\nFIG. 9 illustrates the effect of S12 on mitosis. (A) HeLa cells were treated with S12, S2 or DMSO for 15 hours. The cells were then fixed and subjected to immunostaining using antibodies specific for Aurora B (green) and Survivin (red). DNA was stained with DAPI. Chromosome misalignment is indicated with the arrowheads. (B) Percentage of S12-treated cells in mitosis, in metaphase, in anaphase/telophase, or with misaligned chromosomes. (C) Percentage of S2-treated cells in mitosis, in metaphase, in anaphase/telophase, or with misaligned chromosomes. (D) HeLa cells were treated with S12 (10 μg/ml) or DMSO (control) for 15 hours. Cells were examined by PI staining of DNA content by FACS analysis.\nFIG. 17 illustrates (A) FACS analysis of DNA content of HeLa cells treated with SBDO3. Note the accumulation of cells at the G2/M stage. Cell death was also observed (sub-G1 population); (B) Immuno-fluorescence microscopy analysis of cell treated with SBDO3. Note that the microtubule bundles of the mitotic spindle are disorganized. The chromosomes are not aligned properly and cells cannot go through metaphase.\nThe candidate Survivin-targeting molecules identified by the virtual screen were examined for the ability to inhibit cell proliferation and mitosis. HeLa cells were treated with the compounds at various concentrations for 15 hours followed by examination of the DNA content by FACS analysis. […] The effects of S2 inflicted on cell proliferation and viability are consistent with the anticipated outcome caused by the ablation of Survivin functions. We have extended these studies to test a number of molecules that are structurally similar to S2, including S10, S11, S12 and S13. […] S12 affected cell proliferation and viability, consistent with the anticipated outcome caused by ablation of Survivin functions.\nWe analyzed distribution of cells in the different stages of the cell cycle by FACS. […] In addition, the inhibitory effect of SBDO3 is dose dependent (FIG. 17A).\nWe also conducted immuno-fluorescence studies on SBDO3 treated HeLa cells."}, "HeLa cells [2]": {"test_system": "HeLa cells", "experiment": "BrdU incorporation DNA synthesis assay (FACS), HeLa", "format": "cell-based, human", "conditions": "4 hours treatment then one-hour BrdU", "experimental": "BrdU-labeled cells were analyzed by FACS. The percentage of BrdU-positive cells is indicated.\nHeLa cells were treated with S12, aphidicolin, or DMSO (control) for 4 hours. BrdU was then added to the medium followed by an additional incubation of 1 hour. The amount of BrdU was examined by staining with anti-BrdU antibody and FACS analysis. The percentage of BrdU-positive cells is shown.\nTo establish the specificity of the biological activities of the Survivin targeting we examined whether the compounds affect DNA synthesis. HeLa cells were treated with Aphidicolin, S2 or DMSO for 4 hours, followed by one-hour incubation with BrdU. The cells were then collected, fixed and stained with FITC-labeled anti-BrdU antibody."}, "AsPC1 tumor xenograft [3]": {"test_system": "AsPC1 tumor xenograft", "experiment": "AsPC1 mouse xenograft tumor growth", "format": "in vivo, athymic mice", "experimental": "FIG. 13 illustrates S12 inhibition of tumor growth in vivo. (A) AsPC1 cells were injected subcutaneously into the mid-dorsum of athymic mice. S12 was administered 10 days after the injection at the concentration of 5 mg/kg (blue triangles; middle line on the graph, n=4) or 15 mg/kg (red triangles; lower line on the graph; n=3). The control group was treated with PBS containing DMSO only (black square; upper line on the graph). The results represent the mean tumor volume+/− standard error (P<0.05). (B) In a second set of studies S12 was administered at the concentration of 15 mg/kg or 50 mg/kg (n=3). In both studies the control group was treated with PBS containing DMSO only. The results represented the mean tumor volume+/− standard error.\nThe effect of S12 on tumor growth was examined using a mouse xenograft model. The human pancreatic cell line AsPC1 was injected subcutaneously into athymic mice and formed palpable tumors within 10 days. S12 was then administered at the concentration of 5 mg/kg or 15 mg/kg three times per week until the end point of the experiment. The size of the tumors was monitored for up to 48 days after the initial grafting."}, "AsPC1 tumor xenograft [4]": {"test_system": "AsPC1 tumor xenograft", "experiment": "Immunohistochemistry of tumor xenograft (Ki67, TUNEL)", "format": "in vivo, athymic mice", "description": "FIG. 14 illustrates the immunohistochemistry analysis of tumor xenograft following treatment with S12 or PBS.\nWe performed immunohistochemistry studies to analyze the cellular effects of S12 treatment on the tumors. […] In addition, we examined apoptosis using the TUNEL assay."}, "[5]": {"experiment": "Toxicity observation in xenograft mice", "format": "in vivo", "conditions": "5 to 50 mg/kg, xenograft studies"}}, "data": [{"smiles": "O=C(CC1(O)C(=O)Nc2ccc(Br)cc21)c1ccc2c(c1)OCO2", "note": "(stereo not shown) [S12]", "values": [{"measurement": "binding to the Survivin protein", "setting": "Survivin protein; ITC, in words", "result": "can bind to the Survivin protein"}, {"measurement": "N (ITC stoichiometry)", "setting": "Survivin protein; isothermal titration calorimetry, native Survivin", "result": 1.00}, {"measurement": "Kd", "setting": "Survivin protein; isothermal titration calorimetry, native Survivin, read-out: K (ITC binding constant) (converted)", "result": 224, "unit": "nM"}, {"measurement": "binding to mutant Sur-F86A", "setting": "Sur-F86A", "result": "did not bind"}, {"measurement": "reduction of cell viability", "setting": "HCT116(p53−/−) cells", "result": "equally effective at reducing cell viability"}, {"measurement": "accumulation of cells in the G2/M stage", "setting": "HeLa cells [1]; 15 hours", "result": "accumulation of cells in the G2/M stage"}, {"measurement": "sub-G1 population (cell death)", "setting": "HeLa cells [1]", "result": "increase of cells in the sub-G1 population"}, {"measurement": "DNA synthesis (BrdU incorporation)", "setting": "HeLa cells [2]", "result": "did not block DNA synthesis"}, {"measurement": "tumor volume", "setting": "AsPC1 tumor xenograft [3]; 5 mg/kg or 15 mg/kg three times per week, up to 48 days", "result": "significantly lowered the tumor volume in a dose-dependent manner"}, {"measurement": "tumor regression", "setting": "AsPC1 tumor xenograft [3]; dose raised to 50 mg/kg", "result": "enhancement of tumor regression"}, {"measurement": "proliferation of tumor cells (Ki67)", "setting": "AsPC1 tumor xenograft [4]; immunohistochemistry of tumor xenograft", "result": "drastically reduced proliferation of tumor cells"}, {"measurement": "apoptosis in the tumors (TUNEL assay)", "setting": "AsPC1 tumor xenograft [4]; tumor xenograft", "result": "increased the levels of apoptosis"}, {"measurement": "toxic effects to the mice", "setting": "[5]", "result": "no overtly toxic effects"}]}]}
